From ChEMBL document CHEMBL5380860, “Design, Synthesis, and Antitumor Activity of Potent and Selective EGFR L858R/T790M Inhibitors and Identification of a Combination Therapy to Overcome Acquired Resistance in Models of Non-small-cell Lung Cancer” (J Med Chem, 2023)

System: NCI-H1975
Assay: Antiproliferative activity against human NCI-H1975 cells harboring EGFR L858R/T790M mutant assessed as reduction in cell viability measured after 72 hrs by MTT assay
Format: functional, cell-based
Settings: NCI-H1975, 72 h

| Compound | IC50 [µM] |
| --- | --- |
| C=CC(=O)Nc1cccc(Nc2nc(Nc3ccc(N4CCN(C)CC4)cc3)nc3ccc(OC)cc23)c1 | 2.98 |
| C=CC(=O)Nc1cccc(Nc2nc(Nc3ccc(N(C)CCN(C)C)cc3)nc3ccc(F)cc23)c1 | 1.79 |
| C=CC(=O)Nc1cccc(Nc2nc(Nc3ccc(N4CCOCC4)cc3)nc3ccc(F)cc23)c1 | 2.02 |
| C=CC(=O)Nc1cccc(Nc2nc(Nc3ccc(N4CCC(N5CCOCC5)CC4)cc3)nc3ccc(F)cc23)c1 | 1.6 |
| C=CC(=O)Nc1cccc(Nc2nc(Nc3ccc(N(C)CCN(C)C)cc3OC)nc3ccc(Cl)cc23)c1 | 6.84 |
| C=CC(=O)Nc1cccc(Nc2nc(Nc3ccc(N4CCN(C)CC4)cc3)nc3c(F)cccc23)c1 | 5.48 |
| C/C=C/C(=O)Nc1cccc(Nc2nc(Nc3ccc(N4CCN(C)CC4)cc3)nc3ccc(Cl)cc23)c1 | 0.231 |
| C=CC(=O)Nc1cccc(Nc2nc(Nc3ccc(N4CCN(CC)CC4)cc3)nc3ccc(F)cc23)c1 | 0.025 |
| C=CC(=O)Nc1cccc(Nc2nc(Nc3ccc(C4CCN(C)CC4)cc3)nc3ccc(Cl)cc23)c1 | 3.41 |

System: HCC827
Assay: Antiproliferative activity against human HCC827 cells harboring EGFR exon del 19 mutant assessed as reduction in cell viability measured after 72 hrs by MTT assay
Format: functional, cell-based
Settings: HCC827, 72 h

| Compound | IC50 [µM] |
| --- | --- |
| C=CC(=O)Nc1cccc(Nc2nc(Nc3ccc(N4CCN(C)CC4)cc3)nc3ccc(OC)cc23)c1 | 1.76 |
| C=CC(=O)Nc1cccc(Nc2nc(Nc3ccc(N(C)CCN(C)C)cc3)nc3ccc(F)cc23)c1 | 0.85 |
| C=CC(=O)Nc1cccc(Nc2nc(Nc3ccc(N4CCOCC4)cc3)nc3ccc(F)cc23)c1 | 1.39 |
| C=CC(=O)Nc1cccc(Nc2nc(Nc3ccc(N4CCC(N5CCOCC5)CC4)cc3)nc3ccc(F)cc23)c1 | 2.3 |
| C=CC(=O)Nc1cccc(Nc2nc(Nc3ccc(N(C)CCN(C)C)cc3OC)nc3ccc(Cl)cc23)c1 | 5.98 |
| C=CC(=O)Nc1cccc(Nc2nc(Nc3ccc(N4CCN(C)CC4)cc3)nc3c(F)cccc23)c1 | 2.34 |
| C/C=C/C(=O)Nc1cccc(Nc2nc(Nc3ccc(N4CCN(C)CC4)cc3)nc3ccc(Cl)cc23)c1 | 0.221 |
| C=CC(=O)Nc1cccc(Nc2nc(Nc3ccc(N4CCN(CC)CC4)cc3)nc3ccc(F)cc23)c1 | 0.011 |
| C=CC(=O)Nc1cccc(Nc2nc(Nc3ccc(C4CCN(C)CC4)cc3)nc3ccc(Cl)cc23)c1 | 2.69 |

System: not listed separately
Assay: Cytotoxicity against human A549 cells harboring wild type EGFR assessed as reduction in cell viability measured after 72 hrs by MTT assay
Format: toxicity, cell-based
Settings: not given

| Compound | IC50 at 72 h [µM] |
| --- | --- |
| C=CC(=O)Nc1cccc(Nc2nc(Nc3ccc(N4CCN(C)CC4)cc3)nc3ccc(OC)cc23)c1 | 3.99 |
| C=CC(=O)Nc1cccc(Nc2nc(Nc3ccc(N(C)CCN(C)C)cc3)nc3ccc(F)cc23)c1 | 2.57 |
| C=CC(=O)Nc1cccc(Nc2nc(Nc3ccc(N4CCOCC4)cc3)nc3ccc(F)cc23)c1 | 8.52 |
| C=CC(=O)Nc1cccc(Nc2nc(Nc3ccc(N4CCC(N5CCOCC5)CC4)cc3)nc3ccc(F)cc23)c1 | 5.9 |
| C=CC(=O)Nc1cccc(Nc2nc(Nc3ccc(N(C)CCN(C)C)cc3OC)nc3ccc(Cl)cc23)c1 | > 10 |
| C=CC(=O)Nc1cccc(Nc2nc(Nc3ccc(N4CCN(C)CC4)cc3)nc3c(F)cccc23)c1 | > 10 |
| C/C=C/C(=O)Nc1cccc(Nc2nc(Nc3ccc(N4CCN(C)CC4)cc3)nc3ccc(Cl)cc23)c1 | 3.65 |
| C=CC(=O)Nc1cccc(Nc2nc(Nc3ccc(N4CCN(CC)CC4)cc3)nc3ccc(F)cc23)c1 | 1.52 |
| C=CC(=O)Nc1cccc(Nc2nc(Nc3ccc(C4CCN(C)CC4)cc3)nc3ccc(Cl)cc23)c1 | > 10 |

System: not listed separately
Assay: Cytotoxicity against human A-431 cells harboring wild type EGFR assessed as reduction in cell viability measured after 72 hrs by MTT assay
Format: toxicity, cell-based
Settings: not given

| Compound | IC50 at 72 h [µM] |
| --- | --- |
| C=CC(=O)Nc1cccc(Nc2nc(Nc3ccc(N4CCN(C)CC4)cc3)nc3ccc(OC)cc23)c1 | 4.82 |
| C=CC(=O)Nc1cccc(Nc2nc(Nc3ccc(N(C)CCN(C)C)cc3)nc3ccc(F)cc23)c1 | 3.15 |
| C=CC(=O)Nc1cccc(Nc2nc(Nc3ccc(N4CCOCC4)cc3)nc3ccc(F)cc23)c1 | > 10 |
| C=CC(=O)Nc1cccc(Nc2nc(Nc3ccc(N4CCC(N5CCOCC5)CC4)cc3)nc3ccc(F)cc23)c1 | 7.59 |
| C=CC(=O)Nc1cccc(Nc2nc(Nc3ccc(N(C)CCN(C)C)cc3OC)nc3ccc(Cl)cc23)c1 | > 10 |
| C=CC(=O)Nc1cccc(Nc2nc(Nc3ccc(N4CCN(C)CC4)cc3)nc3c(F)cccc23)c1 | > 10 |
| C/C=C/C(=O)Nc1cccc(Nc2nc(Nc3ccc(N4CCN(C)CC4)cc3)nc3ccc(Cl)cc23)c1 | 4.53 |
| C=CC(=O)Nc1cccc(Nc2nc(Nc3ccc(N4CCN(CC)CC4)cc3)nc3ccc(F)cc23)c1 | 1.55 |
| C=CC(=O)Nc1cccc(Nc2nc(Nc3ccc(C4CCN(C)CC4)cc3)nc3ccc(Cl)cc23)c1 | > 10 |

System: not listed separately
Assay: Selectivity ratio of IC50 for cytotoxicity against human A549 cells harboring wild type EGFR to IC50 for antiproliferative activity against human NCI-H1975 cells harboring EGFR L858R/T790M mutant
Format: toxicity, cell-based
Settings: read-out: Ratio IC50

| Compound | selectivity ratio |
| --- | --- |
| C=CC(=O)Nc1cccc(Nc2nc(Nc3ccc(N4CCN(CC)CC4)cc3)nc3ccc(F)cc23)c1 | 60 |

System: not listed separately
Assay: Selectivity ratio of IC50 for cytotoxicity against human A-431 cells harboring wild type EGFR to IC50 for antiproliferative activity against human NCI-H1975 cells harboring EGFR L858R/T790M mutant
Format: toxicity, cell-based
Settings: read-out: Ratio IC50

| Compound | selectivity ratio |
| --- | --- |
| C=CC(=O)Nc1cccc(Nc2nc(Nc3ccc(N4CCN(CC)CC4)cc3)nc3ccc(F)cc23)c1 | 62 |
